Laboratory results published in paper PMC4406325 (MedChemComm, 2014).

Each molecule was assayed on HIV-1 NL4-3 (assay: Anti-HIV-1 assay). Conditions: HIV-1 NL4-3, MT4 cells.
Format: cell-based

| Compound | inhibition in anti-HIV-1 assay (in words) |
| --- | --- |
| CC(=O)N1CCCN(C(=O)c2cccc(Nc3ncc(F)c(Nc4ccc(F)cc4)n3)c2)CC1 [Compound 11e] | Appreciable inhibition |
| CN(C)CCNC(=O)c1cccc(Nc2ncc(F)c(Nc3ccc(F)cc3)n2)c1 [Compound 11f] | Appreciable inhibition |
| Fc1cnc(Nc2cccc(N3CCOCC3)c2)nc1Nc1c(F)cccc1F [Compound 6d] | Appreciable inhibition |

What follows are molecules tested on KB (nasopharyngeal carcinoma) (assay: SRB cytotoxic activity assay, KB). Conditions: 3 days in culture, average of three independent measurements.
Format: cell-based, human

| Compound | GI50 KB [µM] |
| --- | --- |
| CN(C)c1ccc(C(=O)Nc2cccc(Nc3ncc(F)c(Nc4ccc(F)cc4)n3)c2)cc1 [Compound 9c] | > 10 |
| O=C(Nc1ccc(C(F)(F)F)cc1)c1cccc(Nc2ncc(F)c(Nc3ccc(F)cc3)n2)c1 [Compound 11h] | > 10 |
| O=C(Nc1ccc2c(c1)OCO2)c1cccc(Nc2ncc(F)c(Nc3ccc(F)cc3)n2)c1 [Compound 11l] | 14.08 ± 0.79 |
| O=C(Nc1cccc(Nc2ncc(F)c(Nc3ccc(F)cc3)n2)c1)c1ccccc1 [Compound 9a] | > 10 |
| COc1cc(NC(=O)c2cccc(Nc3ncc(F)c(Nc4ccc(F)cc4)n3)c2)cc(OC)c1 [Compound 11k] | 15.47 ± 1.58 |
| COCC(=O)Nc1cccc(Nc2ncc(F)c(Nc3ccc(F)cc3)n2)c1 [Compound 9h] | 6.25 ± 1.38 |
| O=C(c1cccc(Nc2ncc(F)c(Nc3ccc(F)cc3)n2)c1)N1CCCCC1 [Compound 11c] | 14.78 ± 2.53 |
| O=C(Nc1cccc(Nc2ncc(F)c(Nc3ccc(F)cc3)n2)c1)c1ccncc1 [Compound 9d] | 5.28 ± 3.49 |
| CN1CC[C@H](c2c(O)cc(O)c3c(=O)cc(-c4ccccc4Cl)oc23)[C@H](O)C1 [FVP, flavopiridol, reference compound] | 0.16 ± 0.007 |
| CN1CCC(C(=O)Nc2cccc(Nc3ncc(F)c(Nc4ccc(F)cc4)n3)c2)CC1 [Compound 9f] | 1.70 ± 0.80 |
| O=C(Nc1nccs1)c1cccc(Nc2ncc(F)c(Nc3ccc(F)cc3)n2)c1 [Compound 11o] | > 10 |
| O=C(NCCO)c1cccc(Nc2ncc(F)c(Nc3ccc(F)cc3)n2)c1 [Compound 11g] | 12.39 ± 2.48 |
| Fc1ccc(Nc2nc(Nc3cccc(N4CCOCC4)c3)ncc2F)cc1 [Compound 6c] | > 10 |
| Fc1cnc(Nc2cccc(N3CCOCC3)c2)nc1Nc1ccc(Cl)c(Cl)c1 [Compound 6b] | > 10 |
| O=C(Nc1cccc(Nc2ncc(F)c(Nc3ccc(F)cc3)n2)c1)c1cccc([N+](=O)[O-])c1 [Compound 9b] | 15.10 ± 1.16 |
| Cn1ccnc1NC(=O)c1cccc(Nc2ncc(F)c(Nc3ccc(F)cc3)n2)c1 [Compound 11p] | 14.57 ± 1.70 |

| Compound | GI50 KB [µM] |
| --- | --- |
| O=C(Nc1cccc(Nc2ncc(F)c(Nc3ccc(F)cc3)n2)c1)c1cnccn1 [Compound 9e] | 23.55 ± 3.92 |
| O=C(Nc1ccccn1)c1cccc(Nc2ncc(F)c(Nc3ccc(F)cc3)n2)c1 [Compound 11n] | 20.03 ± 10.96 |
| CC(=O)N1CCCN(C(=O)c2cccc(Nc3ncc(F)c(Nc4ccc(F)cc4)n3)c2)CC1 [Compound 11e] | 14.88 ± 2.20 |
| CS(=O)(=O)N1CCN(C(=O)c2cccc(Nc3ncc(F)c(Nc4ccc(F)cc4)n3)c2)CC1 [Compound 11d] | 20.29 ± 4.09 |
| CN1CCN(C(=O)c2cccc(Nc3ncc(F)c(Nc4ccc(F)cc4)n3)c2)CC1 [Compound 11b] | 12.58 ± 3.05 |
| COc1ccc(NC(=O)c2cccc(Nc3ncc(F)c(Nc4ccc(F)cc4)n3)c2)cc1 [Compound 11j] | > 10 |
| CN(C)CCNC(=O)c1cccc(Nc2ncc(F)c(Nc3ccc(F)cc3)n2)c1 [Compound 11f] | 4.16 ± 0.69 |
| COc1ccc(N2CCN(C)CC2)cc1Nc1ncc(F)c(Nc2ccc(F)cc2)n1 [Compound 6f] | 0.96 ± 0.21 |
| COc1ccc(N2CCOCC2)cc1Nc1ncc(F)c(Nc2ccc(F)cc2)n1 [Compound 6e] | > 10 |
| Fc1cnc(Nc2cccc(N3CCOCC3)c2)nc1Nc1c(F)cccc1F [Compound 6d] | > 10 |
| CN(C)CC(=O)Nc1cccc(Nc2ncc(F)c(Nc3ccc(F)cc3)n2)c1 [Compound 9g] | 1.26 ± 0.05 |
| Fc1cnc(Nc2cccc(N3CCOCC3)c2)nc1Nc1cc(Cl)cc(Cl)c1 [Compound 6a] | 14.80 ± 1.02 |
| O=C(Nc1cc(Cl)cc(Cl)c1)c1cccc(Nc2ncc(F)c(Nc3ccc(F)cc3)n2)c1 [Compound 11m] | 20.08 ± 1.06 |
| O=C(c1cccc(Nc2ncc(F)c(Nc3ccc(F)cc3)n2)c1)N1CCOCC1 [Compound 11a] | 14.58 ± 2.93 |
| O=C(Nc1ccc(N2CCOCC2)cc1)c1cccc(Nc2ncc(F)c(Nc3ccc(F)cc3)n2)c1 [Compound 11i] | > 10 |

The molecules below were run against CDK9/cyclin T1 (Homo sapiens, UniProt P50750) (assay: CDK9/Cyclin T1 kinase assay). Conditions: among all compounds tested at molecular level.
Sequence of CDK9/cyclin T1 (P50750 whole entry): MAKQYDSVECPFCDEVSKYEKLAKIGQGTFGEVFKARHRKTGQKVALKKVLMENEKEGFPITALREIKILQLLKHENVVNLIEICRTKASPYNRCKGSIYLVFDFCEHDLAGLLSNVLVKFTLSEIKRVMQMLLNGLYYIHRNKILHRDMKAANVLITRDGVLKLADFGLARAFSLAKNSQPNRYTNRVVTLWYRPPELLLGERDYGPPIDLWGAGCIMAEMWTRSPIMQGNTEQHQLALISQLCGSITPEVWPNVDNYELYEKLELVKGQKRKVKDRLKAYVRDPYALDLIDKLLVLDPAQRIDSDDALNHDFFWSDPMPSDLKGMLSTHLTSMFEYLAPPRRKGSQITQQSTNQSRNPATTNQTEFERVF
Sequence of CDK9/cyclin T1 (O60563 whole entry partner): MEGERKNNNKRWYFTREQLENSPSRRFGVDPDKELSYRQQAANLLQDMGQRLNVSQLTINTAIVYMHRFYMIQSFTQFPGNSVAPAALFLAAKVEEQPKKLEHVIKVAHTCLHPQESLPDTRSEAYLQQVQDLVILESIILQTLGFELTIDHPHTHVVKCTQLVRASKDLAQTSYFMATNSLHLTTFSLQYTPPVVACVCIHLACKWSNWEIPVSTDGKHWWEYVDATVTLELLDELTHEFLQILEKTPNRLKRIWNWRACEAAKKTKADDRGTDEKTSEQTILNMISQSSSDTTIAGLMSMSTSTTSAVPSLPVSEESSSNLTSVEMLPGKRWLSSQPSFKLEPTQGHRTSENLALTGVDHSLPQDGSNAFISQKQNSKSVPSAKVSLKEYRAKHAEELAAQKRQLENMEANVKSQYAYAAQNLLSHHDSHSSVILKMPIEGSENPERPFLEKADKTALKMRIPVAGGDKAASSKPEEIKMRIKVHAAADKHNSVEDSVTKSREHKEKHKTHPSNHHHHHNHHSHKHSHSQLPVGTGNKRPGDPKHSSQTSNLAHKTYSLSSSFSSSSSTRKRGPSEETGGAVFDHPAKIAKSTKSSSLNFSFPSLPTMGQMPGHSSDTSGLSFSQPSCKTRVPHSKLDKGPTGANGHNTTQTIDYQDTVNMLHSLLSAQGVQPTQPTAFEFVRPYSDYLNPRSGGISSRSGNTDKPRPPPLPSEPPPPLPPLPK
Format: biochemical

| Compound | selectivity to CDK9 over CDK2 (in words) |
| --- | --- |
| O=C(Nc1cccc(Nc2ncc(F)c(Nc3ccc(F)cc3)n2)c1)c1ccncc1 [Compound 9d] | moderate selectivity to CDK9 over CDK2 |
| Fc1cnc(Nc2cccc(N3CCOCC3)c2)nc1Nc1c(F)cccc1F [Compound 6d] | moderate selectivity to CDK9 over CDK2 |
